Values after ≈ are worked out from the molar mass of the structure shown. “Also recorded” adds a separate entry of the source. Read-outs that look alike come from different tables or passages of the source. Residues, ends and D or L forms follow the SMILES beside them.
Legend:
A. fumigatus = conditions: 24 h
Method: (§1) A1163 was grown on potato dextrose agar (PDA) medium at 37 °C for 5 days, and then the conidia were scraped and suspended in PBS with 0.025% (v/v) Tween 20, counted using a hemocytometer, and kept at 4 °C. isolated from peanuts and Pe21 (both kindly provided by Dr. Edward Sionov, ARO, Israel) were grown on PDA medium at 25 °C for 5 days, and then the conidia were scraped and suspended in PBS with 0.025% Tween 20 and kept at 4 °C. RP and methicillin-resistant (MRSA) were grown on LB agar plates, and individual colonies were picked and grown in Mueller–Hinton (MH) broth overnight at 37 °C. was grown on PDA medium at 30 °C, and individual colonies were picked and grown in yeast extract peptone dextrose (YPD) media overnight at 30 °C. All fungal and bacteria strains were maintained at −80 °C in 50% (v/v) glycerol stock.
(§2) For filamentous fungi strains, serial dilutions of 100 μL ranged from 100 to 0.78 μM for each peptide in a 96 well plate using RPMI1640 with 165 μM MOPS. A total of 80 μL of inoculum was suspended with a conidia load of 5 × 10^3 CFU/mL (final density of 2 × 10^3 CFU/mL), and 20 μL of resazurin was diluted in RPMI1640 solution of 0.02% [final concentration of 0.0002% (w/v)]. In the control, 100 μL of treatment was replaced by the same volume with medium, while the negative control was 180 μL of the medium and 20 μL of resazurin solution. Plates were incubated at 37 °C for and 25 °C for and for 24 h. The results were quantified by measuring absorbance at 570 nm with a microplate reader (Tecan). The mean absorbance values were used in subsequent calculations. The growth of resazurin reduction and growth inhibition was calculated using the following normalization: % growth=100−% reduction=abs of test agent−abs of untreated control/abs of reduced resazurin−abs of untreated control The MIC was defined as the lowest concentration of the peptide that inhibited fungal growth by 90%, allowing for only 10% of the normal growth. For bacterial and yeast strains studies, serial dilutions of 100 μL ranged from 100 to 0.78 μM for each peptide in a 96 well plate using MH media for bacteria and YPD for yeast. A total of 100 μL of the microbe in suitable media (5 × 10^5 CFU/mL) was inoculated in each well. In the untreated well (e.g., control), 100 μL of treatment was replaced by the same volume with medium, while in the negative control, media were only without microbes and peptides. After 24 h of incubation at 37 °C for bacteria and 30 °C for yeast, plates were read at 595 nm and MIC was defined as the lowest concentration of peptide that reduced the growth of the microbe to 10% growth.

P. expansum = conditions: 24 h
Method: as §1, §2

A. Niger = conditions: 24 h
Method: as §1, §2

MRSA = tested on: MRSA
Method: as §1, §2

E. coli = tested on: E. coli
Method: as §1, §2

chymotrypsin = chymotrypsin (Bos taurus, UniProt P00766); experiment: Digestion examination of the peptides by chymotrypsin
Method: Peptides were dissolved in 1 mL of 100 μM NH4HCO3 to a final concentration of 4 mM, followed by the addition of 1 μL chymotrypsin (1 mg/mL), and were incubated at 37 °C and 150 rpm. At each time point, 75 μL of the solution was transferred to 90 °C for inactivation of the enzyme. After the peptides were frozen in liquid nitrogen and lyophilized, they were dissolved in DMSO and were analyzed in HPLC using Analytic Phenomenex Luna C18 (5 μm, 4.6 × 250 mm) with standard RP-HPLC conditions. The area under curve (AUC) was calculated at each time point and normalized to time = 0.
4 Peptide’s secondary structure and digestibility. (A) CD spectra of the peptides (50 μM) in DDW was measured using a J-1100 spectropolarimeter (Jasco), with the following parameters: wavelength range of 190–260 nm, bandwidth of 1 nm, data pitch of 0.1 nm, and three accumulations. A baseline spectrum was recorded using a 0.1 cm quartz cuvette filled with DDW and subtracted from the peptide spectrum to obtain the corrected CD spectrum. […] The area under the curve (AUC) was calculated at each time point and normalized to t = 0. The y axis ranges from 100%, meaning not digested at all, to 0%, meaning fully digested.

[1] = RPMI1640 with MOPS, resazurin, absorbance 570 nm, MIC = lowest concentration inhibiting growth by 90%, average ± SE, 3 biological repeats in triplicates
[2] = MH media, 5 × 10^5 CFU/mL, 24 h at 37 °C, read at 595 nm, MIC = growth reduced to 10%, average ± SE, 3 biological repeats in triplicates

SMILES | MIC Values, A. fumigatus (A. fumigatus; [1]) | MIC Values, P. expansum (P. expansum; [1]) | MIC Values, A. Niger (A. Niger; [1]) | MIC Values, MRSA (MRSA; [2]) | MIC Values, E. coli (E. coli; [2]) | digestion by chymotrypsin (chymotrypsin) | MIC Values, MRSA (MRSA) | MIC Values, E. coli (E. coli) | MIC Values, A. fumigatus (A. fumigatus) | MIC Values, P. expansum (P. expansum) | MIC Values, A. Niger (A. Niger) | MIC Values, MRSA (MRSA; 24 h) | MIC Values, E. coli (E. coli; 24 h)
CC[C@H](C)[C@H](NC(=O)[C@H](CCCCN)NC(=O)[C@H](CCCCN)NC(=O)[C@H](Cc1ccccc1)NC(=O)[C@H](CC(C)C)NC(=O)[C@H](CCCCN)NC(=O)[C@H](CCCCN)NC(=O)[C@H](CC(C)C)NC(=O)[C@H](Cc1ccc(O)cc1)NC(=O)[C@H](CCCCN)NC(=O)[C@H](CC(C)C)NC(=O)[C@@H](NC(=O)[C@H](CCCCN)NC(=O)[C@H](CCCCN)NC(=O)[C@H](Cc1ccccc1)NC(=O)[C@H](CC(C)C)NC(=O)[C@H](CCCCN)NC(=O)[C@@H](N)CCCCN)[C@@H](C)CC)C(=O)N[C@@H](CC(C)C)C(=O)N[C@@H](CCCCN)C(=O)N[C@@H](Cc1ccc(O)cc1)C(=O)N[C@@H](CC(C)C)C(N)=O [BP100 Double] (H-KKLFKKILKYLKKLFKKILKYL-NH2) | 3 ± 0.5 µM (≈ 8.47 µg/mL) | 2 ± 0 µM (≈ 5.65 µg/mL) | 5 ± 1 µM (≈ 14.1 µg/mL) | >200 µM | >200 µM | less prone for digestions; also recorded: not digested | – | – | – | – | – | – | –
CC[C@H](C)[C@H](NC(=O)[C@H](CCCCN)NC(=O)[C@H](CCCCN)NC(=O)[C@H](Cc1ccccc1)NC(=O)[C@H](CC(C)C)NC(=O)[C@H](CCCCN)NC(=O)[C@@H](N)Cc1ccccc1)C(=O)N[C@@H](CC(C)C)C(=O)N[C@@H](CCCCN)C(=O)N[C@@H](Cc1ccc(O)cc1)C(=O)N[C@@H](CC(C)C)C(N)=O [BP100 F1K] | 10 ± 2 µM (≈ 14.4 µg/mL) | 6 ± 0 µM (≈ 8.64 µg/mL) | 42 ± 8 µM (≈ 60.5 µg/mL) | 3 ± 1 µM (≈ 4.32 µg/mL) | 3 ± 1 µM (≈ 4.32 µg/mL) | – | – | – | – | – | – | – | –
CC[C@H](C)[C@H](N)C(=O)N[C@@H](CCCCN)C(=O)N[C@@H](CC(C)C)C(=O)N[C@@H](Cc1ccccc1)C(=O)N[C@@H](CCCCN)C(=O)N[C@@H](CCCCN)C(=O)N[C@H](C(=O)N[C@@H](CC(C)C)C(=O)N[C@@H](CCCCN)C(=O)N[C@@H](Cc1ccc(O)cc1)C(=O)N[C@@H](CC(C)C)C(N)=O)[C@@H](C)CC [BP100 I1K] | 13 ± 0 µM (≈ 18.3 µg/mL) | 8 ± 2 µM (≈ 11.2 µg/mL) | 33 ± 8 µM (≈ 46.4 µg/mL) | 3 ± 0 µM (≈ 4.22 µg/mL) | 3 ± 1 µM (≈ 4.22 µg/mL) | – | – | – | – | – | – | – | –
CC[C@H](C)[C@H](NC(=O)[C@H](CCCCN)NC(=O)[C@H](CCCCN)NC(=O)[C@H](Cc1ccccc1)NC(=O)[C@H](CC(C)C)NC(=O)[C@H](CCCCN)NC(=O)[C@@H](N)CC(C)C)C(=O)N[C@@H](CC(C)C)C(=O)N[C@@H](CCCCN)C(=O)N[C@@H](Cc1ccc(O)cc1)C(=O)N[C@@H](CC(C)C)C(N)=O [BP100 L1K] | 13 ± 0 µM (≈ 18.3 µg/mL) | 8 ± 2 µM (≈ 11.2 µg/mL) | 33 ± 8 µM (≈ 46.4 µg/mL) | 3 ± 0 µM (≈ 4.22 µg/mL) | 3 ± 1 µM (≈ 4.22 µg/mL) | – | – | – | – | – | – | – | –
CC[C@H](C)[C@H](NC(=O)[C@H](CCCCN)NC(=O)[C@H](CCCCN)NC(=O)[C@H](Cc1ccccc1)NC(=O)[C@H](CC(C)C)NC(=O)[C@H](CCCCN)NC(=O)[C@@H](N)CCCCN)C(=O)N[C@@H](CC(C)C)C(=O)N[C@@H](CCCCN)C(=O)N[C@@H](Cc1ccc(O)cc1)C(=O)N[C@@H](CC(C)C)C(N)=O [BP100, reference compound] | 6 ± 0 µM (≈ 8.53 µg/mL) | 13 ± 6 µM (≈ 18.5 µg/mL) | 44 ± 8 µM (≈ 62.5 µg/mL) | – | – | – | 17 ± 4 µM (≈ 24.2 µg/mL) | 3 ± 2 µM (≈ 4.26 µg/mL) | – | – | – | – | –
C[C@H](N)C(=O)N[C@@H](CCCCN)C(=O)N[C@@H](CCCNC(=N)N)C(=O)N[C@@H](Cc1c[nH]cn1)C(=O)N[C@@H](Cc1c[nH]cn1)C(=O)NCC(=O)N[C@@H](Cc1ccc(O)cc1)C(=O)N[C@@H](CCCCN)C(=O)N[C@@H](CCCNC(=N)N)C(=O)N[C@@H](CCCCN)C(=O)N[C@@H](Cc1ccccc1)C(=O)N[C@@H](Cc1c[nH]cn1)C(=O)N[C@@H](C)C(=O)N[C@@H](CCCCN)C(=O)N[C@@H](CCCNC(=N)N)C(=O)N[C@@H](Cc1c[nH]cn1)C(=O)N[C@@H](Cc1c[nH]cn1)C(=O)NCC(=O)N[C@@H](Cc1ccc(O)cc1)C(=O)N[C@@H](CCCCN)C(=O)N[C@@H](CCCNC(=N)N)C(=O)N[C@@H](CCCCN)C(=O)N[C@@H](Cc1ccccc1)C(=O)N[C@@H](Cc1c[nH]cn1)C(N)=O [P-113 Double] (H-AKRHHGYKRKFHAKRHHGYKRKFH-NH2) | 15 ± 5 µM (≈ 46.7 µg/mL) | 9 ± 3 µM (≈ 28 µg/mL) | 5 ± 1 µM (≈ 15.6 µg/mL) | >200 µM | >200 µM | – | – | – | – | – | – | – | –
C[C@H](N)C(=O)N[C@@H](CCCCN)C(=O)N[C@@H](CCCNC(=N)N)C(=O)N[C@@H](CCCCN)C(=O)N[C@@H](CCCCN)C(=O)NCC(=O)N[C@@H](Cc1ccc(O)cc1)C(=O)N[C@@H](CCCCN)C(=O)N[C@@H](CCCNC(=N)N)C(=O)N[C@@H](CCCCN)C(=O)N[C@@H](Cc1ccccc1)C(=O)N[C@@H](CCCCN)C(N)=O [P-113 H4,5,12K] (H-AKRKKGYKRKFK-NH2) | 5 ± 1 µM (≈ 7.68 µg/mL) | >200 µM | 14 ± 4 µM (≈ 21.5 µg/mL) | >200 µM | >200 µM | – | – | – | – | – | – | – | –
C[C@H](N)C(=O)N[C@@H](CCCCN)C(=O)N[C@@H](CCCNC(=N)N)C(=O)N[C@@H](CCCCN)C(=O)N[C@@H](Cc1c[nH]cn1)C(=O)NCC(=O)N[C@@H](Cc1ccc(O)cc1)C(=O)N[C@@H](CCCCN)C(=O)N[C@@H](CCCNC(=N)N)C(=O)N[C@@H](CCCCN)C(=O)N[C@@H](Cc1ccccc1)C(=O)N[C@@H](Cc1c[nH]cn1)C(N)=O [P-113 H4K] (H-AKRKHGYKRKFH-NH2) | – | – | – | – | – | – | – | – | 33 ± 8 µM (≈ 51.3 µg/mL) | >200 µM | 14 ± 2 µM (≈ 21.8 µg/mL) | >200 µM | >200 µM
C[C@H](N)C(=O)N[C@@H](CCCCN)C(=O)N[C@@H](CCCNC(=N)N)C(=O)N[C@@H](Cc1c[nH]cn1)C(=O)N[C@@H](Cc1c[nH]cn1)C(=O)NCC(=O)N[C@@H](Cc1ccc(O)cc1)C(=O)N[C@@H](CCCCN)C(=O)N[C@@H](CCCNC(=N)N)C(=O)N[C@@H](CCCCN)C(=O)N[C@@H](Cc1ccccc1)C(=O)N[C@@H](CCCCN)C(N)=O [P-113 H12K] (H-AKRHHGYKRKFK-NH2) | 4 ± 1 µM (≈ 6.22 µg/mL) | >200 µM | 17 ± 4 µM (≈ 26.4 µg/mL) | >200 µM | >200 µM | – | – | – | – | – | – | – | –
C[C@H](N)C(=O)N[C@@H](CCCCN)C(=O)N[C@@H](CCCNC(=N)N)C(=O)N[C@@H](Cc1c[nH]cn1)C(=O)N[C@@H](Cc1c[nH]cn1)C(=O)NCC(=O)N[C@@H](Cc1ccc(O)cc1)C(=O)N[C@@H](CCCCN)C(=O)N[C@@H](CCCNC(=N)N)C(=O)N[C@@H](CCCCN)C(=O)N[C@@H](Cc1ccccc1)C(=O)N[C@@H](Cc1c[nH]cn1)C(N)=O [P-113, reference compound] (H-AKRHHGYKRKFH-NH2) | – | – | – | – | – | – | – | – | 21 ± 4 µM (≈ 32.8 µg/mL) | >200 µM | 14 ± 2 µM (≈ 21.9 µg/mL) | >200 µM | >200 µM
